Data published in patent EP2272817A1, “PAI-1 INHIBITOR” (Institute of Medicinal Molecular Design, Inc., priority 2008, dated 2009).

These molecules were tested against recombinant human PAI-1 (Homo sapiens, UniProt P05121) (assay: Test Example 2: Human PAI-1 Inhibitory Activity (pH 7.4 HEPES buffer, 10 minutes incubation with two-chain tPA)). Details: read-out: Inhibition Rate of PAI-1 Activity (%).
Format: biochemical
Design: purchased Molecular Innovations, Inc
Description: 0.1 M HEPES, 0.1 M NaCl. 1 mM EDTA. 0.1 % Polyethylene glycol 8,000 (Hampton Research Corporation),
2 mM Dimethyldecylphoshine oxide [Apo-10] (Fluka Corporation)

Sequence of recombinant human PAI-1 (P05121 24-402): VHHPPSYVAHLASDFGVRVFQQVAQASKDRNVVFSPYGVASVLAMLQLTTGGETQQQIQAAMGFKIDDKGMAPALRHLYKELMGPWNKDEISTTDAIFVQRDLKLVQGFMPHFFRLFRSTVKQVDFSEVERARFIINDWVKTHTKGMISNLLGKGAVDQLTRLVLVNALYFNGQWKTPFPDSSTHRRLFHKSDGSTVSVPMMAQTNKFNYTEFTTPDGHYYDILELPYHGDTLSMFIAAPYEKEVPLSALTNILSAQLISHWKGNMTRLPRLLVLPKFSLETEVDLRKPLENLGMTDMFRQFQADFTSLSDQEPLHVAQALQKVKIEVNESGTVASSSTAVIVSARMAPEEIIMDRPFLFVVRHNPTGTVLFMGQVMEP

Compound | inhibition at 0.1 µM | inhibition at 0.3 µM | inhibition at 1 µM | inhibition at 3 µM
Cc1cc(C)cc(Oc2cc(-c3ccc(C(C)(C)C)cc3)ccc2CCC(=O)O)c1 [Compound 499] | 15% | 14% | 77% | 98%
CC(Oc1cc(-c2ccc(OC(F)(F)F)cc2)ccc1/C=C/C(=O)O)c1ccccc1 (centres unmarked) [Compound 500] | 19% | 14% | 25% | 80%
CC(Oc1cc(-c2ccc(OC(F)(F)F)cc2)ccc1CCC(=O)O)c1ccccc1 (centres unmarked) [Compound 501] | 12% | 0% | 12% | 83%
CC(C)(C)c1ccc(Oc2cc(-c3cccc(OC(F)(F)F)c3)ccc2/C=C/C(=O)O)cc1 [Compound 503] | 13% | 27% | 97% | 93%
CC(C)(C)c1ccc(Oc2cc(-c3cccc(OC(F)(F)F)c3)ccc2CCC(=O)O)cc1 [Compound 504] | 13% | 26% | 91% | > 99%
O=C(O)CCc1ccc(-c2ccc(OC(F)(F)F)cc2)cc1OC(c1ccccc1)c1ccccc1 [Compound 507] | 6% | 8% | 49% | > 99%
O=C(O)CCc1ccc(-c2ccc(OC(F)(F)F)cc2)cc1OCCCSc1ccccc1 [Compound 508] | 18% | 9% | 48% | 98%
CCCCc1ccc(Oc2cc(-c3ccc(OC(F)(F)F)cc3)ccc2/C=C/C(=O)O)cc1 [Compound 511] | 11% | 68% | > 99% | > 99%
CC(C)c1ccccc1Oc1cc(-c2ccc(OC(F)(F)F)cc2)ccc1OCC(=O)O [Compound 513] | 17% | 7% | 69% | > 99%
CC(C)(C)c1cccc(Oc2cc(-c3cccc(OC(F)(F)F)c3)ccc2/C=C/C(=O)O)c1 [Compound 514] | 21% | 22% | 96% | > 99%
CC(C)(C)c1ccc(Sc2cc(-c3ccc(OC(F)(F)F)cc3)ccc2CCC(=O)O)cc1 [Compound 517] | 20% | 50% | 95% | > 99%
CC(C)c1ccc(-c2ccc(/C=C/C(=O)O)c(Sc3ccc(C(C)(C)C)cc3)c2)cc1 [Compound 520] | 14% | 72% | > 99% | > 99%
CCC(CC)Oc1ccc(-c2ccc(CCC(=O)O)c(Oc3ccc(C(C)(C)C)cc3)c2)cc1 [Compound 522] | 33% | 71% | 98% | 98%
CC(C)(C)c1ccc(Oc2cc(-c3ccc(OC(F)(F)F)cc3)ccc2CCCC(=O)O)cc1 [Compound 527] | 6% | 36% | 98% | > 99%
CC(C)(C)c1ccc(Sc2cc(-c3ccc(OC(F)(F)F)cc3)ccc2/C=C\C(=O)O)cc1 [Compound 529] | 18% | 29% | 94% | > 99%

The remaining lines, values ahead:

inhibition at 0.1 µM | inhibition at 0.3 µM | inhibition at 1 µM | inhibition at 3 µM | Compound
0% | 33% | > 99% | > 99% | CCCCc1ccc(-c2ccc(Oc3ccc(C(C)(C)C)cc3)c(OCC(=O)O)c2)cc1 [Compound 505]
2% | 9% | 78% | > 99% | O=C(O)/C=C/c1ccc(-c2ccc(OC(F)(F)F)cc2)cc1OC(c1ccccc1)c1ccccc1 [Compound 506]
1% | 22% | 96% | > 99% | CC(C)c1ccc(Oc2cc(-c3ccc(OC(F)(F)F)cc3)ccc2/C=C/C(=O)O)cc1 [Compound 509]
0% | 8% | 84% | > 99% | CC(C)c1ccc(Oc2cc(-c3ccc(OC(F)(F)F)cc3)ccc2CCC(=O)O)cc1 [Compound 510]
18% | 41% | 96% | 98% | CCCCc1ccc(Oc2cc(-c3ccc(OC(F)(F)F)cc3)ccc2CCC(=O)O)cc1 [Compound 512]
12% | 16% | 86% | > 99% | CC(C)(C)c1cccc(Oc2cc(-c3cccc(OC(F)(F)F)c3)ccc2CCC(=O)O)c1 [Compound 515]
16% | 39% | 98% | > 99% | CC(C)c1ccc(Sc2cc(-c3ccc(OC(F)(F)F)cc3)ccc2/C=C/C(=O)O)cc1 [Compound 516]
14% | 54% | > 99% | > 99% | CC(C)c1ccc(-c2ccc(/C=C/C(=O)O)c(Oc3ccc(C(C)(C)C)cc3)c2)cc1 [Compound 518]
1% | 19% | > 99% | > 99% | CC(C)c1ccc(-c2ccc(CCC(=O)O)c(Oc3ccc(C(C)(C)C)cc3)c2)cc1 [Compound 519]
25% | 82% | > 99% | > 99% | CCC(CC)Oc1ccc(-c2ccc(/C=C/C(=O)O)c(Oc3ccc(C(C)(C)C)cc3)c2)cc1 [Compound 521]
11% | 15% | 78% | > 99% | CCCCOc1ccc(Oc2cc(-c3ccc(OC(F)(F)F)cc3)ccc2OCC(=O)O)cc1 [Compound 523]
8% | 12% | 51% | 97% | O=C(O)/C=C/c1ccc(-c2ccc(OC(F)(F)F)cc2)cc1Sc1ccccc1 [Compound 528]
17% | 21% | 93% | > 99% | CC(C)(C)c1ccc(Sc2cc(-c3ccc(OC(F)(F)F)cc3)ccc2CC(=O)O)cc1 [Compound 530]
3% | 38% | 94% | 96% | CC(C)(C)c1ccc(Oc2cc(Nc3ccc(OC(F)(F)F)cc3)ccc2/C=C/C(=O)O)cc1 [Compound 531]
12% | 59% | > 99% | > 99% | CC(C)(C)c1ccc(Oc2cc(Nc3ccc(OC(F)(F)F)cc3)ccc2CCC(=O)O)cc1 [Compound 532]
25% | 83% | 97% | 97% | CCCCN(CC(=O)O)c1ccc(-c2ccc(OC(F)(F)F)cc2)cc1Oc1ccc(C(C)(C)C)cc1 [Compound 533]
13% | 21% | 84% | > 99% | CN(CC(=O)O)c1ccc(-c2ccc(OC(F)(F)F)cc2)cc1Oc1ccc(C(C)(C)C)cc1 [Compound 534]
